# Measured values taken from article PMC11371747, “The role of l-leucovorin uptake and metabolism in the modulation of 5-fluorouracil efficacy and antifolate toxicity” (Frontiers in Pharmacology, 2024).
# Where “and” joins values, the source holds several entries; their conditions need not be identical. Identical values can stand only once. Like-named read-outs stand apart in the source and are kept apart here.
# What was measured:
# [1] = target: T1, folate receptor α (FRα) (Homo sapiens, UniProt P15328); experiment: Intact cell competitive binding assay, displacement of [3H]-folic acid from FRα in KB cells; conditions: for Relative affinity for FRα: 100 pmol [3H]-FA, inverse ratio of amount of drug displacing 50% of [3H]-FA, FA set to 1
# T1 construct: endogenous in cells; host or cells: KB cells (FRα++)
# T1 sequence (P15328 25-257): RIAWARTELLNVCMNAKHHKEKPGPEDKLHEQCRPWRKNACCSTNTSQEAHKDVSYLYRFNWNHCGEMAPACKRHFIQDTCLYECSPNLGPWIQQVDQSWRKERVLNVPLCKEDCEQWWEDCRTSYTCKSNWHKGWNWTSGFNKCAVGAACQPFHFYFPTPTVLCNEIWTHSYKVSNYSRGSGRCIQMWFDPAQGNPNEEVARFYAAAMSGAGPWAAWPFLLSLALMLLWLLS
# Protocol: (§1) In order to determine whether the LV isomers were substrates for either folate receptor α (FRα), RFC and/or PCFT, we used model systems with established overexpression of these receptors or transporters ([Westerhof et al., 1995a]; [Westerhof et al., 1995b]; [Lasry et al., 2008]; [Van der Heijden et al., 2009]).
# For FRα we used KB cells ([Westerhof et al., 1995b]). An intact cell binding assay for competitive binding was performed as described previously ([Westerhof et al., 1995a]). Briefly, cells were washed with Hanks balanced salt solution and 6 mM glucose (HBSS, pH 7.4), suspended in 1 mL of this solution (1*10^6 for KB cells) and incubated at 4°C for 15 min with 100 pmol [^3H]-folic acid [(^3H)-FA], in the presence and absence of unlabelled folic acid or LV stereoisomers. Cells were collected by centrifugation and analysed for radioactivity. Relative affinities for FRα were defined as the inverse ratio of compound to displace 50% of radioactive folic acid from FRα. The relative affinity of folic acid was set at 1.
# [2] = target: T2, reduced folate carrier (RFC/SLC19A1) (Homo sapiens, UniProt P41440); experiment: Inhibition of RFC-mediated [3H]-l-LV influx in CEM-7A cells; format: cell-based; conditions: for IC50: 5 µM [3H]-l-LV, 2 min, 37°C, read-out: Concentration for 50% inhibition of [3H]-l-LV influx (RFC)
# T2 construct: CEM-7A cells, which display 30-fold RFC overexpression relative to wild-type CCRF-CEM cells; endogenous in cells; host or cells: CEM-7A (CCRF-CEM variant, RFC+++ 30-fold)
# T2 sequence (P41440 1-591): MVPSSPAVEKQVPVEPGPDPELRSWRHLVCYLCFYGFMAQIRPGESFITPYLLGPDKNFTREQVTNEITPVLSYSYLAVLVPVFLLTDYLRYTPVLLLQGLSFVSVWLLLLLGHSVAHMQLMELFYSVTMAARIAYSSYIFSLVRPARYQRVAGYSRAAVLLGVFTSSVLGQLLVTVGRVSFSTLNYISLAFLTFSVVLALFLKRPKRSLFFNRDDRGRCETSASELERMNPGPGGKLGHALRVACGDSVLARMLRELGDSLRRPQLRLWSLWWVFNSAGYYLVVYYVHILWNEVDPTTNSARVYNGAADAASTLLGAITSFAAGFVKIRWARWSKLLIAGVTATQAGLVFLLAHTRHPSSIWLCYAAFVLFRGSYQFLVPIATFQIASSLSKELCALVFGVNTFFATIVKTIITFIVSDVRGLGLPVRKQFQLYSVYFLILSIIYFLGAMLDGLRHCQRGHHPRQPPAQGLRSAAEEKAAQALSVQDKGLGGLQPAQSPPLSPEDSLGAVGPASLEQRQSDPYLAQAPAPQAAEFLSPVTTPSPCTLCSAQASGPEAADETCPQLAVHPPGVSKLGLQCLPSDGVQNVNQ
# Protocol: as §1
# CEM-7A cells (2 × 10^6) were suspended in 1 mL HBSS and the assay was initiated by addition of 25 μL 200 μM [^3H]-l-LV; 5,000 pmol (i.e., 5 μM final concentration). Incubations proceeded for 2 min at 37°C in the absence and presence of increasing amounts of unlabelled LV/antifolate drug. Blanks consisted of a separate incubation at 4°C or incubation with 100-fold molar excess of unlabelled l-LV. [^3H]-l-LV influx was terminated by adding 9 mL ice-cold HBSS, centrifugation and an additional wash of the cells with 10 mL ice-cold buffer. Cell pellets were then assessed for radioactivity. Relative affinities for RFC are expressed as the concentration of unlabelled drug necessary to inhibit [^3H]-l-LV uptake by 50%.
# [3] = test system: colon cancer cell lines; experiment: Growth inhibition, SRB assay, panel of colon cancer cell lines; format: cell-based, human
# Protocol: (§2) Briefly, cells were seeded in triplicate in 96-well plates at their pre-established optimal density (CHO cells: 2,500 cells/100 μL; WiDr and HT29: 3,500 cells/100 μL; WiDr-LF/LV, LS174T: 5,000 cells/100 μL; CaCo2, CaCo2-LF/LV, H292, H28 and MSTO-211H: 6,000 cells/100 μL; H460, SW948 and SW1398: 7,000 cells/100 μL) and were allowed to attach for ∼ 24 h at 37°C in 5% CO2 and 100% humidified incubator. Thereafter, 100 μL of drug dilution without LV, or with 5 μM l-LV/5 μM d-LV/10 μM dL-LV (or any LV alone) were added. Cells were allowed to grow for 72 h at 37°C in 5% CO2 and 100% humidity. The t = 0 h control plate consisted of cells plated on the same day as the other cells, but after 24 h at 37°C in 5% CO2 and 100% humidity, only 100 μL medium was added and the cells were fixed immediately with 50% trichloroacetic acid (TCA) in milliQ water (25 μL per well) and put at 4°C for at least 1 h. Plates were washed five times with water and dried. Cells were stained with the SRB protein dye (0.4% (w/v) in 1% acetic acid. Excess dye was washed away four times with 1% acetic acid and plates were dried again. 200 μL of Tris (10 mM Tris (hydroxymethyl)-aminomethane in MQ) was added and optical density (OD) was read at 492 nm after mixing 2–3 min on a plate shaker.
# [4] = target: T3, human PCFT (Homo sapiens, UniProt Q96NT5); experiment: Inhibition of PCFT-mediated [3H]-l-LV influx in CHO/C5-PCFT cells; format: cell-based, Chinese hamster (CHO cells); conditions: for IC50: pH 5.5, 3 min, read-out: Concentration for 50% inhibition of PCFT-mediated [3H]-l-LV influx
# T3 construct: expressed in transfected cells; host or cells: CHO/C5 (RFC-deficient Chinese hamster ovary cells, no PCFT)
# T3 sequence (Q96NT5 1-459): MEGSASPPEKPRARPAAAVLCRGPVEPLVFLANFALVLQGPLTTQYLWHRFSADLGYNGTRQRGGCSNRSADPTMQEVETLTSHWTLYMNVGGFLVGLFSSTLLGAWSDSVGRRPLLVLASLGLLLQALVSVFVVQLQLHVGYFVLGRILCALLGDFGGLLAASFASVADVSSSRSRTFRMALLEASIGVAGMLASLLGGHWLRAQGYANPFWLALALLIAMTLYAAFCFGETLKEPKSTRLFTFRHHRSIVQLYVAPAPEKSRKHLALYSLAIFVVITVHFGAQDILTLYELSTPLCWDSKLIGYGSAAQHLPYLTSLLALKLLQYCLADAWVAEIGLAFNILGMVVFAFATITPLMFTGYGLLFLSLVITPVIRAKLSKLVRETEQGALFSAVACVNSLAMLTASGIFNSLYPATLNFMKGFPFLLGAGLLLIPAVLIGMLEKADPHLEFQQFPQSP
# Protocol: as §1
# The competitive inhibition by 2.5 μM [^3H]-l-LV influx of PCFT was measured essentially as described for the RFC assay, except that the incubation time was 3 min, at pH 5.5 (the optimal pH for PCFT) and pH 7.4 with increasing amounts of unlabelled LV stereoisomers/antifolate drug. For PCFT too, relative affinities were expressed as the concentration of unlabelled drug necessary to inhibit 50% of [^3H]-l-LV influx.
# [5] = test system: CHO/C5-PCFT cells; experiment: Growth inhibition, SRB assay, CHO/C5-PCFT (PCFT-transfected); format: cell-based, Chinese hamster
# Protocol: as §2
# [6] = test system: CHO/C5-MOCK cells; experiment: Growth inhibition, SRB assay, CHO/C5-MOCK (empty vector); format: cell-based, Chinese hamster
# Protocol: as §2
# [7] = test system: CHO/C5 cells; experiment: Growth inhibition, SRB assay, CHO/C5 (RFC-deficient); format: cell-based, Chinese hamster
# Protocol: as §2
# [8] = test system: AA8 cells; experiment: Growth inhibition, SRB assay, AA8 (parental CHO); format: cell-based, Chinese hamster; conditions: for IC50: AA8 parental CHO
# Protocol: as §2
# [9] = test system: CHO/C5-hRFC cells; experiment: Growth inhibition, SRB assay, CHO/C5-hRFC (human RFC transfected); format: cell-based, Chinese hamster; conditions: for IC50: CHO/C5-hRFC; for Protection by l-LV, increase of the IC50 value: hRFC-transfected cells, 5 µM l-LV
# Protocol: as §2
# [10] = test system: WiDr LF/LV cells; experiment: Growth inhibition, SRB assay, WiDr LF/LV; format: cell-based, human; conditions: WiDr-LF cells, 5 µM d-LV
# Protocol: as §2
# [11] = target: T4, thymidylate synthase (TS) (Homo sapiens, UniProt P04818); experiment: TS in situ inhibition assay (TSIA) in colon cancer cells; format: cell-based; conditions: WiDr, 5 µM d-LV
# T4 construct: The principle of this assay is the measurement of TS enzymatic activity in intact cells; endogenous in cells; host or cells: colon cancer cell lines (WiDr, WiDr-LF, SW1398, LS174T and others)
# T4 sequence (P04818 2-313 limits assumed): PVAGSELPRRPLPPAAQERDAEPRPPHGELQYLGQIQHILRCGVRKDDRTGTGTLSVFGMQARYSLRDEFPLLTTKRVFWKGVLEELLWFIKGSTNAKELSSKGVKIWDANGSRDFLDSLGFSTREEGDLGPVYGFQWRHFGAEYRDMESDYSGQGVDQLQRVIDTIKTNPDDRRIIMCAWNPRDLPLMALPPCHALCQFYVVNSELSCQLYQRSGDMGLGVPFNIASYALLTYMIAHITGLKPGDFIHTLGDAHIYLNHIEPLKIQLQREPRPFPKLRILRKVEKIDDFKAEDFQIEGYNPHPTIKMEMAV
# Description: The principle of this assay is the measurement of TS enzymatic activity in intact cells. Intact cells will readily internalize radioactively labelled [5-^3H]-deoxycytidine, which will be rapidly converted by deoxycytidine kinase (dCK) to [5-^3H]-dCMP and subsequently deaminated to [5-^3H]-dUMP, which will then serve as a substrate in the TS catalysed reaction to dTMP and ^3H2O; the quantity of ^3H2O formed over time is a measure of intracellular TS activity. […] This is because dCK has a higher, cell cycle independent activity than thymidine kinase 1, which is a cell cycle dependent enzyme. For this purpose, cancer cells were cultured in six wells plates at 2.5 × 10^5 cells/2 mL/well for 24 h. Thereafter, cells were exposed to drugs with or without the LV formulations at the indicated concentrations for 4 h. 2 h before the end of the incubation period [5-^3H]-2′-deoxycytidine (final concentration 1 µM) was added to the cells. […] In most cell lines we quantified dCK activity and dCK mRNA levels.
# [12] = test system: H292 cells; experiment: Growth inhibition, SRB assay, H292 (NSCLC); format: cell-based, human; conditions: H292, SRB, read-out: IC50, 72 h drug exposure
# Protocol: as §2
# [13] = test system: MSTO-211H cells; experiment: Growth inhibition, SRB assay, MSTO-211H (MPM); format: cell-based, human; conditions: SRB, read-out: IC50, 72 h drug exposure
# Protocol: as §2
# [14] = test system: H28 cells; experiment: Growth inhibition, SRB assay, H28 (MPM); format: cell-based, human; conditions: H28, SRB, read-out: IC50, 72 h drug exposure
# Protocol: as §2
# [15] = test system: H460 cells; experiment: Growth inhibition, SRB assay, H460 (NSCLC); format: cell-based, human; conditions: H460, SRB, read-out: IC50, 72 h drug exposure
# Protocol: as §2
# [16] = CHO/C5/PCFT cells, 2.5 µM [3H]-l-LV
# [17] = Cricetulus griseus, antifolate alone
SMILES,Molar excess over folic acid required for displacement of [3H]-FA binding from FRα [1] [fold],Relative affinity for FRα [1],IC50 [2] [µM],"IC50 [4, 16] [µM]","IC50 [5, 17] [µM]",IC50 ([5]; antifolate + 5 µM l-LV) [µM],"IC50 [6, 17] [µM]",IC50 ([6]; antifolate + 5 µM l-LV) [µM],"IC50 [7, 17] [µM]",IC50 ([7]; antifolate + 5 µM l-LV) [µM],IC50 ([8]; antifolate + 5 µM l-LV) [nM],"IC50 [8, 17] [nM]",IC50 ([9]; antifolate + 5 µM l-LV) [nM],"IC50 [9, 17] [nM]","Protection by l-LV, increase of the IC50 value [9] [fold]",other results
"Nc1nc2c(c(=O)[nH]1)N(C=O)C(CNc1ccc(C(=O)N[C@@H](CCC(=O)O)C(=O)O)cc1)CN2 (stereo partly drawn) [l-LV, 5-formyltetrahydrofolate]",15,0.073,5.5,4,,,,,,,,,,,,"RFC substrate affinity of l-LV over d-LV [2]: 8 fold; Modulation (enhanced efficacy) of 5FU ([3]; selected colon cancer cell lines: WiDr, HT29, SW948 and SW1398 cells, 5 µM l-LV): 2 fold; PCFT substrate affinity of l-LV over d-LV [4]: 3.5 fold"
"CN(Cc1cnc2nc(N)nc(N)c2n1)c1ccc(C(=O)N[C@@H](CCC(=O)O)C(=O)O)cc1 [MTX, methotrexate]",,,,,3.39,41,6.67,> 100,8.93,> 100,6600,38,1450,20,72,"Fold less active than PLX ([8]; AA8 cells): 10 fold; 50% inhibition of [3H]-l-LV influx (RFC), fold higher concentration than l-LV [2]: 3 fold"
"Nc1nc2c(c(=O)[nH]1)N(C=O)[C@H](CNc1ccc(C(=O)N[C@@H](CCC(=O)O)C(=O)O)cc1)CN2 [d-LV, (6R)-leucovorin]",69,0.016,44,13.3,,,,,,,,,,,,Increase of IC50 value for 5FU by d-LV [10]: 1.5 fold; Protective effect on the TSIA against antifolates [11]: does not display any protective effect; Modulation of 5FU sensitivity ([3]; all colon cancer cell lines): ineffective
"Cc1nc2ccc(CN(C)c3ccc(C(=O)N[C@@H](CCC(=O)O)C(=O)O)s3)cc2c(=O)[nH]1 [RTX, raltitrexed]",,,,,4.33,52.6,2.4,> 100,2.73,6.68,2920,19,11700,8,1462,"IC50 ([12]; antifolate + 5 µM l-LV): 6.33 µM; IC50 ([12]; Homo sapiens, NCI-H292, 72 h, antifolate alone): 0.014 ± 0.0008 µM; IC50 ([13]; Homo sapiens, 72 h, antifolate alone): 8 ± 0.5 nM; IC50 ([13]; antifolate + 5 µM l-LV): 4580 nM; IC50 ([14]; antifolate + 5 µM l-LV): 4260 nM; IC50 ([14]; Homo sapiens, NCI-H28, 72 h, antifolate alone): 136 ± 16 nM; IC50 ([15]; antifolate + 5 µM l-LV): 19.8 µM; IC50 ([15]; Homo sapiens, NCI-H460, 72 h, antifolate alone): 0.022 ± 0.0009 µM"
"Nc1nc(=O)c2c([nH]1)NC[C@H](CNc1ccc(C(=O)N[C@@H](CCC(=O)O)C(=O)O)cc1)N2C=O [[^3H]-l-LV, [3′,5′,7,9-^3H(N)]-(6S)-Leucovorin]",,,,,,,,,,,,,,,,"PCFT influx rate of [3H]-l-LV at pH 7.4 compared to pH 5.5 [4, 16]: 11% and 11.5%"
